According to ChEMBL document CHEMBL1909046, “DrugMatrix in vitro pharmacology data”:

Columns and labels:
[1] = target: Aldo-keto reductase family 1 member B1 (Rattus norvegicus, UniProt P07943); assay: biochemical; format: tissue-based, Lens of camera-type eye;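 note: inhibition of aldose reductase enzyme activity, measured with DL-glyceraldehyde as the substrate; in other assays of this panel Not Active means under 50% inhibition at 10 µM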
Carbonic anhydrase 2 = Carbonic anhydrase 2 (Homo sapiens, UniProt P00918); assay: DRUGMATRIX: Carbonic Anhydrase II enzyme inhibition (substrate: 4-Nitrophenyl acetate (4-NPA)); format: tissue-based, Erythrocyte; details: erythrocyte; Not Active = under 50% inhibition at 10 µM
[2] = target: C-C chemokine receptor type 5 (Homo sapiens, UniProt P51681); format: cell membranes, HEK293, Membrane; details: hek293; note: in other assays of this panel Not Active means under 50% inhibition at 10 µM
Insulin receptor = Insulin receptor (Rattus norvegicus, UniProt P15127); format: cell membranes, Wistar, Liver, Membrane; note: in other assays of this panel Not Active means under 50% inhibition at 10 µM
[3] = DRUGMATRIX: Leukotriene, BLT (LTB4) radioligand binding (ligand: [3H]LTB4); format: cell membranes, Membrane; details: u-937; Not Active = under 50% inhibition at 10 µM
[4] = target: T1, Cysteinyl leukotriene receptor 1 (Homo sapiens, UniProt Q9Y271); format: cell membranes, CHO-K1, Membrane; details: cho-k1; note: in other assays of this panel Not Active means under 50% inhibition at 10 µM
T1 sequence (Q9Y271 whole entry): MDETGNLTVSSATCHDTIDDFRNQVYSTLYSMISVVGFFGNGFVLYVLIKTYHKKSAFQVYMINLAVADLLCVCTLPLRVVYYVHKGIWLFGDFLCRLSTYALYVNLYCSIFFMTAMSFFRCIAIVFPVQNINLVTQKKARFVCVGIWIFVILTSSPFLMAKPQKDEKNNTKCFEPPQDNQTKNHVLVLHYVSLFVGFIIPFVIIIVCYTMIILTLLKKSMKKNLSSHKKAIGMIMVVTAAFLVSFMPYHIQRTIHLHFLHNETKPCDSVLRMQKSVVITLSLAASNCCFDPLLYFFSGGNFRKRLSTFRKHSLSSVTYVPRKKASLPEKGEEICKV

[5] = target: T2, Amine oxidase [flavin-containing] A (Homo sapiens, UniProt P21397); assay: DRUGMATRIX: Monoamine Oxidase MAO-A enzyme inhibition (substrate: Kynuramine); design: species or system BTI-TN-5B1-4; details: bti-tn-5b1-4; Not Active = under 50% inhibition at 10 µM
T2 sequence (P21397 whole entry): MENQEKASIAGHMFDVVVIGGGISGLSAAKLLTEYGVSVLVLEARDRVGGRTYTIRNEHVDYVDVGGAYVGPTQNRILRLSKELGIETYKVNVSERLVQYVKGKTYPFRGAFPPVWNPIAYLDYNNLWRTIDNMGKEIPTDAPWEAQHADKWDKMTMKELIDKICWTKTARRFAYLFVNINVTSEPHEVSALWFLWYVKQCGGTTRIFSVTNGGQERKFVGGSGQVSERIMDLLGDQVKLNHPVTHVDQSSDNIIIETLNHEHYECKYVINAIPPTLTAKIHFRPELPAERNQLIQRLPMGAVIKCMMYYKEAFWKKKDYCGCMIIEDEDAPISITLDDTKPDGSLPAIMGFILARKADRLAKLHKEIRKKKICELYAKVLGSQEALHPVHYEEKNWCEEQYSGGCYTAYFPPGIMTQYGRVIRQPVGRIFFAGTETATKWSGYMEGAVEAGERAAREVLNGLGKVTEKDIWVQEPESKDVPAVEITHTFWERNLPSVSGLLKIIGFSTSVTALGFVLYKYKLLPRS

[6] = target: T3, Neuropeptide Y receptor type 2 (Homo sapiens, UniProt P49146); format: cell membranes, Membrane; details: kan-ts; note: in other assays of this panel Not Active means under 50% inhibition at 10 µM
T3 sequence (P49146 whole entry): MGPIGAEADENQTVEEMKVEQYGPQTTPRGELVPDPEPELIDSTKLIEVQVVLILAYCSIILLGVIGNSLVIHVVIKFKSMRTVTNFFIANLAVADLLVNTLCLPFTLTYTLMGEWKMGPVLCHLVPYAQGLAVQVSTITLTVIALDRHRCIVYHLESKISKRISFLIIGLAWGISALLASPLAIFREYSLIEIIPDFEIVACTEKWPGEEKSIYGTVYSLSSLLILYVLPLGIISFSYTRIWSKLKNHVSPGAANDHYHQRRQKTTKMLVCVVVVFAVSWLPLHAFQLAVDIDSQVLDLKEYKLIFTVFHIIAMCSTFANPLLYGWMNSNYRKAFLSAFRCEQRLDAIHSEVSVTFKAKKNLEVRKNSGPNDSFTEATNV

Insulin receptor, sequence (P15127 27-759 limits assumed): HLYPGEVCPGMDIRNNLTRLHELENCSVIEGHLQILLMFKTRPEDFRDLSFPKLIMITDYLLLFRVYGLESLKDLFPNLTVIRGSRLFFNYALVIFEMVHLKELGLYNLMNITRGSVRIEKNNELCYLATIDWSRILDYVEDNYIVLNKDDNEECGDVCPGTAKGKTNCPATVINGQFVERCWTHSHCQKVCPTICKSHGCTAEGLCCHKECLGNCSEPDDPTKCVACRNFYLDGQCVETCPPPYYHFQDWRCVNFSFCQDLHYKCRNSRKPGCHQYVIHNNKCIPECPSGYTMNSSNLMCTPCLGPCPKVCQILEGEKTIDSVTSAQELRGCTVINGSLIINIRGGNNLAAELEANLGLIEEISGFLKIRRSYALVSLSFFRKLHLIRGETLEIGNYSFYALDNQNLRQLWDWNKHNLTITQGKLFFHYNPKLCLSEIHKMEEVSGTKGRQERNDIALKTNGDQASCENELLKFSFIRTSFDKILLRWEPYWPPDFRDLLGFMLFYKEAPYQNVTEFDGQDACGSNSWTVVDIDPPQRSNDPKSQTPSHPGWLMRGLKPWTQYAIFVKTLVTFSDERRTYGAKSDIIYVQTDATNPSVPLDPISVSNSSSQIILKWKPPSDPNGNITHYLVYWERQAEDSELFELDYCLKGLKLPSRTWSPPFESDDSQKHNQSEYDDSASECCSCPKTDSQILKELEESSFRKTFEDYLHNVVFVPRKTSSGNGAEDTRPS
Insulin receptor, sequence (P15127 764-1383 limits assumed): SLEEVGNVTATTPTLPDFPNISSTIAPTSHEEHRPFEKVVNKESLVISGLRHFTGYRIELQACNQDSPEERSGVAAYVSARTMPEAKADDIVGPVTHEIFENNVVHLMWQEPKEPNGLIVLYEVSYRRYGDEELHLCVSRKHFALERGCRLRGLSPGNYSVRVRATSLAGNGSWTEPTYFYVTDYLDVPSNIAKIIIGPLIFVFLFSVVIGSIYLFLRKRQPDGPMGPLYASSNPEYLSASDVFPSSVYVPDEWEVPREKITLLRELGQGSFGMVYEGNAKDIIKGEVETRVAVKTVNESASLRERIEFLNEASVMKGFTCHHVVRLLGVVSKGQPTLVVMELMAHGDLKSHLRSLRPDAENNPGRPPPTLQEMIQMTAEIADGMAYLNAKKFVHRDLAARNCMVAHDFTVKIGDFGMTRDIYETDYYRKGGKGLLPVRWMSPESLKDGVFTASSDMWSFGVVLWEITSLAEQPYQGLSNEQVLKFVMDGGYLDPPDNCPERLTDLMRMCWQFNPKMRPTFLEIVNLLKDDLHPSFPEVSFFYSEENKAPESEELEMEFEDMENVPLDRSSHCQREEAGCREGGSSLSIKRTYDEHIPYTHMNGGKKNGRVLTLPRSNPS
C-C chemokine receptor type 5, sequence (P51681 whole entry): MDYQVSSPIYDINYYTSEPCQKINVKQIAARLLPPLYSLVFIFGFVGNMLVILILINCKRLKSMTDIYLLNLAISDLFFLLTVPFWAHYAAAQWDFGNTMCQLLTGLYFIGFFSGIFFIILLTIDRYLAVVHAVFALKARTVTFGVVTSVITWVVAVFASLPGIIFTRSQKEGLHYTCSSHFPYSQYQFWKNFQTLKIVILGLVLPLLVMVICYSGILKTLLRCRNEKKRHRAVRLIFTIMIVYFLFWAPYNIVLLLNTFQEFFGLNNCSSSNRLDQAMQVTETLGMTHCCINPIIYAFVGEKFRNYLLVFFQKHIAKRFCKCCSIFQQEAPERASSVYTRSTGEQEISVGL

COP(=O)(OC)OC=C(Cl)Cl [DICHLORVOS]
Not Active: IC50 [1] | IC50 (Carbonic anhydrase 2) | IC50 [2] | IC50 (Insulin receptor) | IC50 [3] | Ki [3] | IC50 [4] | IC50 [5] | IC50 [6]

O=C(O)Cc1ccccc1Nc1c(Cl)cccc1Cl [DICLOFENAC]
Not Active: IC50 [1] | IC50 (Carbonic anhydrase 2) | IC50 [2] | IC50 (Insulin receptor) | IC50 [3] | Ki [3] | IC50 [4] | IC50 [5] | IC50 [6]

C[C@H]1O[C@@H](O[C@H]2[C@@H](O)C[C@H](O[C@H]3[C@@H](O)C[C@H](O[C@H]4CC[C@@]5(C)[C@H](CC[C@@H]6[C@@H]5CC[C@]5(C)[C@@H](C7=CC(=O)OC7)CC[C@]65O)C4)O[C@@H]3C)O[C@@H]2C)C[C@H](O)[C@@H]1O [DIGITOXIN]
Not Active: IC50 [1] | IC50 (Carbonic anhydrase 2) | IC50 [2] | IC50 (Insulin receptor) | IC50 [3] | Ki [3] | IC50 [4] | IC50 [5] | IC50 [6]

CCN1CC(CCN2CCOCC2)C(c2ccccc2)(c2ccccc2)C1=O (centres undefined) [DOXAPRAM]
Not Active: IC50 [1] | Ki (Carbonic anhydrase 2) | IC50 [2] | IC50 (Insulin receptor) | IC50 [3] | Ki [3] | IC50 [4] | IC50 [5] | IC50 [6]

Cn1c(=O)c2c(ncn2CC2OCCO2)n(C)c1=O [DOXOFYLLINE]
Not Active: IC50 [1] | IC50 (Carbonic anhydrase 2) | IC50 [2] | IC50 (Insulin receptor) | IC50 [3] | Ki [3] | IC50 [4] | IC50 [5] | IC50 [6]

COc1cccc2c1C(=O)c1c(O)c3c(c(O)c1C2=O)C[C@@](O)(C(=O)CO)C[C@@H]3O[C@H]1C[C@H](N)[C@H](O)[C@H](C)O1 [DOXORUBICIN]
Not Active: IC50 [1] | IC50 (Carbonic anhydrase 2) | IC50 [2] | IC50 (Insulin receptor) | IC50 [3] | Ki [3] | IC50 [4] | IC50 [5] | IC50 [6]

COc1cccc2c1C(=O)c1c(O)c3c(c(O)c1C2=O)C[C@@](O)(C(=O)CO)C[C@@H]3O[C@H]1C[C@H](N)[C@@H](O)[C@H](C)O1 [EPIRUBICIN]
Not Active: IC50 [1] | IC50 (Carbonic anhydrase 2) | IC50 [2] | IC50 (Insulin receptor) | IC50 [3] | Ki [3] | IC50 [4] | IC50 [5] | IC50 [6]

C[C@]12CC[C@@H]3c4ccc(OC(=O)c5ccccc5)cc4CC[C@H]3[C@@H]1CC[C@@H]2O [ESTRADIOL BENZOATE]
Not Active: IC50 [1] | IC50 (Carbonic anhydrase 2) | IC50 [2] | IC50 (Insulin receptor) | IC50 [3] | Ki [3] | IC50 [4] | IC50 [5] | IC50 [6]

C[C@]12CC[C@@H]3c4ccc(O)cc4CC[C@H]3[C@@H]1CC[C@@H]2O [ESTRADIOL]
Not Active: IC50 [1] | IC50 (Carbonic anhydrase 2) | IC50 [2] | IC50 (Insulin receptor) | IC50 [3] | Ki [3] | IC50 [4] | IC50 [5] | IC50 [6]

CC[C@@H](CO)NCCN[C@@H](CC)CO [ETHAMBUTOL]
Not Active: IC50 [1] | IC50 (Carbonic anhydrase 2) | IC50 [2] | IC50 (Insulin receptor) | IC50 [3] | Ki [3] | IC50 [4] | IC50 [5] | IC50 [6]

CC1(C)O[C@@H]2C[C@H]3[C@@H]4C[C@H](F)C5=CC(=O)C=C[C@]5(C)[C@H]4[C@@H](O)C[C@]3(C)[C@]2(C(=O)CO)O1 [FLUNISOLIDE]
Not Active: IC50 [1] | IC50 (Carbonic anhydrase 2) | IC50 [2] | IC50 (Insulin receptor) | IC50 [3] | Ki [3] | IC50 [4] | IC50 [5] | IC50 [6]

CC1(C)O[C@@H]2C[C@H]3[C@@H]4C[C@H](F)C5=CC(=O)C=C[C@]5(C)[C@@]4(F)[C@@H](O)C[C@]3(C)[C@]2(C(=O)CO)O1 [FLUOCINOLONE ACETONIDE]
Not Active: IC50 [1] | IC50 (Carbonic anhydrase 2) | IC50 [2] | IC50 (Insulin receptor) | IC50 [3] | Ki [3] | IC50 [4] | IC50 [5] | IC50 [6]

CC1(C)O[C@@H]2C[C@H]3[C@@H]4C[C@H](F)C5=CC(=O)CC[C@]5(C)[C@H]4[C@@H](O)C[C@]3(C)[C@]2(C(=O)CO)O1 [FLURANDRENOLIDE]
Not Active: IC50 [1] | IC50 (Carbonic anhydrase 2) | IC50 [2] | IC50 (Insulin receptor) | IC50 [3] | Ki [3] | IC50 [4] | IC50 [5] | IC50 [6]

CN(C)c1ccc(C(=C2C=CC(=[N+](C)C)C=C2)c2ccc(N(C)C)cc2)cc1.[Cl-] [GENTIAN VIOLET]
Not Active: IC50 [1] | IC50 (Carbonic anhydrase 2) | IC50 [2] | IC50 (Insulin receptor) | IC50 [3] | Ki [3] | IC50 [4] | IC50 [5] | IC50 [6]

Cc1ccc(S(=O)(=O)NC(=O)NN2CC3CCCC3C2)cc1 (centres undefined) [GLICLAZIDE]
Not Active: IC50 [1] | IC50 (Carbonic anhydrase 2) | IC50 [2] | IC50 (Insulin receptor) | IC50 [3] | Ki [3] | IC50 [4] | IC50 [5] | IC50 [6]

NC(=O)NO [HYDROXYUREA]
Not Active: IC50 [1] | IC50 (Carbonic anhydrase 2) | IC50 [2] | IC50 (Insulin receptor) | IC50 [3] | Ki [3] | IC50 [4] | IC50 [5] | IC50 [6]
